≈ marks a conversion by molar mass, not a printed value.
What was measured:
Assay in all cases: minimal inhibitory concentration (MIC), agar streak test
Type in all cases: cell-based
[1] = tested on: B. subtilis ATCC 6633; conditions: Bacillus subtilis, ATCC6633, heart infusion agar, 37° C., 20 hours, 10^8 viable cells per ml
Method: (§1) One loopful of an overnight culture of each test strain in Trypticase-soy broth (10^8 viable cells per ml.) was streaked on heart infusion agar (HI-agar) containing graded concentrations of antibiotics, and the minimal inhibitory concentration (MIC) was expressed in terms of μg/ml after incubation at 37° C. for 20 hours.

[2] = tested on: Ps. aeruginosa 2; conditions: Pseudomonas aeruginosa, heart infusion agar, 37° C., 20 hours, 10^8 viable cells per ml
Method: as §1

[3] = tested on: S. marcescens 35; conditions: Serratia marcescens, heart infusion agar, 37° C., 20 hours, 10^8 viable cells per ml
Method: as §1

Compound: CCO/N=C(\C(=O)NC1C(=O)N2C(C(=O)[O-])=C(C[n+]3cccc(CO)c3)CSC12)c1nsc(N)n1 (stereo not drawn) [(1)]
- MIC [1]: 0.78 µg/mL (≈ 1.5 µM)
- MIC [2]: 6.25 µg/mL (≈ 12 µM)
- MIC [3]: 3.13 µg/mL (≈ 6.02 µM)

Compound: CCO/N=C(\C(=O)NC1C(=O)N2C(C(=O)[O-])=C(C[n+]3ccc(CO)cc3)CSC12)c1nsc(N)n1 (stereo not drawn) [(2)]
- MIC [1]: 0.78 µg/mL (≈ 1.5 µM)
- MIC [2]: 12.5 µg/mL (≈ 24.1 µM)
- MIC [3]: 1.56 µg/mL (≈ 3 µM)

Compound: CCO/N=C(\C(=O)NC1C(=O)N2C(C(=O)[O-])=C(C[n+]3cccc(Cl)c3)CSC12)c1nsc(N)n1 (stereo not drawn) [(3)]
- MIC [1]: 0.78 µg/mL (≈ 1.49 µM)
- MIC [2]: 6.25 µg/mL (≈ 11.9 µM)
- MIC [3]: 3.13 µg/mL (≈ 5.97 µM)

Compound: CCO/N=C(\C(=O)NC1C(=O)N2C(C(=O)[O-])=C(C[n+]3cc(C)cc(C)c3)CSC12)c1nsc(N)n1 (stereo not drawn) [(4)]
- MIC [1]: 1.56 µg/mL (≈ 3.01 µM)
- MIC [2]: 6.25 µg/mL (≈ 12.1 µM)
- MIC [3]: 3.13 µg/mL (≈ 6.05 µM)

Compound: CCO/N=C(\C(=O)NC1C(=O)N2C(C(=O)[O-])=C(C[n+]3ccc(CCCO)cc3)CSC12)c1nsc(N)n1 (stereo not drawn) [(5)]
- MIC [1]: 0.78 µg/mL (≈ 1.42 µM)
- MIC [2]: 12.5 µg/mL (≈ 22.8 µM)
- MIC [3]: 1.56 µg/mL (≈ 2.85 µM)

Reference: patent publication US4457928A, “Cephem compounds” (Fujisawa Pharmaceutical Co., Ltd., priority 1980, dated 1984)
